Where a name gives a salt, the structure may show the parent alone.
Tests used:
[1] = test system: pooled male human liver microsomes; assay: Metabolism by human liver microsomes, Example 33; format: in vitro ADME; conditions: 6 hours incubation (FIGS. 4A, 4B)
Method: Compounds were incubated with pooled male human liver microsomes (BD Biosciences, #452172) and an NADP-regenerating system in a phosphate buffer (pH 7.4) for a total of 6 hours. Aliquots were removed every 2 hours, and 1% formic acid was added to halt the reaction. Samples were centrifuged, filtered through 0.2 micron spinfilter and the amount of each compound in the supernatants was quantitated using LC/MS/MS.

[2] = target: T1, human muscarinic M1 receptors (Homo sapiens, UniProt P11229); assay: IP production in A9L cells with human M1 receptors (IPOne TR-FRET), Example 28; format: cell-based; conditions: for huM1/A9L Smax: percentage of maximal stimulation by carbachol; for huM1/A9L ED50 relative to CCh*: potency relative to carbachol at its EC50, semi-quantitative
T1 construct: host or cells: A9L cells
T1 sequence (P11229 1-460): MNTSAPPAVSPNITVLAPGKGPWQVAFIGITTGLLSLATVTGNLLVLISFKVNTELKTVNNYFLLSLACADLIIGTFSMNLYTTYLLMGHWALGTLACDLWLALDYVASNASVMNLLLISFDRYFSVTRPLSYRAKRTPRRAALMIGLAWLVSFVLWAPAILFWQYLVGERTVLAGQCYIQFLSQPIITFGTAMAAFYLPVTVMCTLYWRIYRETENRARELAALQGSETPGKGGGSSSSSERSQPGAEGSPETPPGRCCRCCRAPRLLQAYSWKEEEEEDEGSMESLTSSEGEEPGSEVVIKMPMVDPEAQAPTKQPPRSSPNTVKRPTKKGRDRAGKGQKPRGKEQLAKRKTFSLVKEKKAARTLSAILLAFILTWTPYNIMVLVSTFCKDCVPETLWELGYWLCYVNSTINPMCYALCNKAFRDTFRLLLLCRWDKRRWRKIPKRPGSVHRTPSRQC
Method in brief: (§1)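 A9L cells transfected with human M1 or M3 receptors, exposed to compound in medium with 10 mM LiCl and 10 mM HEPES (pH 7.4) for 60 min at 37 °C. IP in lysates measured by IPOne TR-FRET; efficacy expressed relative to full agonist (100%).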

[3] = target: T2, human muscarinic M3 receptors (Homo sapiens, UniProt P20309); assay: IP production in A9L cells with human M3 receptors (IPOne TR-FRET), Example 28; format: cell-based; conditions: for huM3/A9L Smax: percentage of maximal stimulation by carbachol; for huM3/A9L ED50 relative to CCh*: potency relative to carbachol at its EC50, semi-quantitative
T2 construct: host or cells: A9L cells
T2 sequence (P20309 whole entry): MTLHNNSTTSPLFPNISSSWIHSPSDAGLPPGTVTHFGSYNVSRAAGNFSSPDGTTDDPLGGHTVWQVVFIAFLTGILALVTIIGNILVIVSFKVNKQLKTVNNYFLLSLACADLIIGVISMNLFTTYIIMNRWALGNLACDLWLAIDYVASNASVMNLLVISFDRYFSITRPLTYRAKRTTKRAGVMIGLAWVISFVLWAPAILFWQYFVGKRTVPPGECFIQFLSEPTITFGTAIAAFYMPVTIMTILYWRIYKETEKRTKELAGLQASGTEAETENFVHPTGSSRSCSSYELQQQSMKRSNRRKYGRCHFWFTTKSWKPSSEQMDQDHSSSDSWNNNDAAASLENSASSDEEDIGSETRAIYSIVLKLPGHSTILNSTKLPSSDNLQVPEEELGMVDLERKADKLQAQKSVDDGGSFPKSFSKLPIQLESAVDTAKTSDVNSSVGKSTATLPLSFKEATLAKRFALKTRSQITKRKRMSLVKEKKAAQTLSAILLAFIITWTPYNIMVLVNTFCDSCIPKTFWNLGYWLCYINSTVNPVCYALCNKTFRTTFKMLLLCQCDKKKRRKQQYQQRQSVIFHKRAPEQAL
Method in brief: as §1

[4] = Metabolites in serum and urine of dosed rats (LC-MS); format: in vivo; conditions: rats, dosed orally
Method: Oxadiazoles disclosed herein as well as other oxadiazoles were investigated to determine the formation of metabolites. Animals were dosed, blood taken, serum prepared, serum proteins precipitated and ultrafiltrates prepared as described in Example 6. In separate experiments, urine was collected from rats for 16-24 hours after dosing, using standard metabolic cages. The urine container and collected urine were maintained at 4° C. Urine was lyophilized, taken back into water. The uftrafiltrate was prepared by adding formic acid to a final concentration of 1% to the urine samples, then filtered through a 0.2 um nylon membrane. The ultrafiltrate was subjected to LC-MS analysis. Instead of measuring the product ions in Q3, manual Q1 scans of the liquid chromatograph were undertaken, seeking parent ions of potential metabolites of the compounds. The criteria for identifying metabolites were as follows: (1) the ion should be present in the sera or urines of dosed rats, but not in sera or urines from non-dosed rats (2) the ion should be identifiable as a metabolic derivative of the dosed compound (e.g. loss of a functional chemical moiety, addition of a hydroxyl group or a glucuronic acid moiety, etc). Metabolites were determined not to be present if no compound meeting the above criteria could be detected in serum or urine.

human FMO1 Supersomes = target: T3, human FMO1 Supersomes (Homo sapiens, UniProt Q01740); assay: Metabolism by flavin monoxygenase 1 (FMO1) Supersomes; format: in vitro ADME; conditions: after 6 hours (FIG. 2)
T3 construct: purchased BD Biosciences 456241
T3 sequence (Q01740 1-532): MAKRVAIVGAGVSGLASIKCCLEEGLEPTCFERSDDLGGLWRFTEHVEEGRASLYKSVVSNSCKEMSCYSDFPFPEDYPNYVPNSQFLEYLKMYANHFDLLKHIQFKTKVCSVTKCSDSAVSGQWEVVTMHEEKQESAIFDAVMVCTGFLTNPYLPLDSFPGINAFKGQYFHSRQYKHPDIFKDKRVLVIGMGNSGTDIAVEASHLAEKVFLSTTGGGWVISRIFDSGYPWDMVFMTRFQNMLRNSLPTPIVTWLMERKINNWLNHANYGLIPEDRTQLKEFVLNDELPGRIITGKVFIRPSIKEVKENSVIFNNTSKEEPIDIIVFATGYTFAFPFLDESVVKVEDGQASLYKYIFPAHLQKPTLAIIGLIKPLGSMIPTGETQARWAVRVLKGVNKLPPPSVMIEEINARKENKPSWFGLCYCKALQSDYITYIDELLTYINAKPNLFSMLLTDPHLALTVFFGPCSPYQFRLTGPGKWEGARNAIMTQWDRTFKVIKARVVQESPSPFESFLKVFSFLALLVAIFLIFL
Method: […] Aliquots were removed every 10 minutes, and 1% formic acid was added to halt the reaction. Samples were centrifuged, filtered through 0.2 micron spinfilter and the amount of each compound in the supernatants was quantitated using LC/MS/MS.

rats = assay: In vivo muscarinic effects in rats after oral dosing
Text: In these respects it was essentially the same as compound 3.

[5] = Blood and brain concentrations (rats), oral gavage; format: in vivo, Long-Evans Hooded rats; conditions: rats, oral dosing
Method: Long-Evans Hooded rats (Charles River: male, 250-350 g) were dosed with solutions of test compounds in PBS by oral gavage. At the desired time after dosing, the animals were anesthetized with isoflurane, and then euthanized by cervical dislocation. Blood was obtained by cardiac puncture, transferred to a 1.5 mL microcentrifuge tube containing 15U Heparin, and the plasma recovered after centrifugation. Brains were dissected, weighed, immediately chilled to 4° C., and homogenized using a PowerGen 125 homogenizer in five volumes of ice-cold 2% formic acid. Proteins were precipitated from plasma and brain homogenate with two and five volumes respectively of ice-cold 2% formic acid and clarified by centrifugation. The supernatant was ultra-filtered by centrifugation through a 3K MWCO spin column (Pall Life Sciences), following the manufacturer's instructions. The concentration of compound in the ultra-filtrate was subjected to reverse-phase liquid chromatography using a 150×2.1 mm Agilent C8 reverse-phase column on a Shimadzu Prominence LC, eluting the compounds with a gradient of 2% to 50% of acetonitrile+0.1% formic acid for compound MI-50,382, or an isocratic flow of 2% acetonitrile+0.1% formic acid for the rest of the compounds listed. The concentration of the compound in the column effluent was measured using an Applied Biosystems API-3200 triple quadrupole mass spectrometer equipped with an electrospray sample injection system. The counts of the characteristic parent and product ions of each test compound were converted to concentration units by comparison with a standard calibration curve.

anesthetized normal rats = assay: In vivo measurement of salivation; set-up: species or system Long Evans Hooded rats; conditions: anesthetized normal rats, dose-dependent between about 0.1 mg/kg and 1 mg/kg (FIG. 11)
Method: Suitable doses of test compounds or drug substances were administered using standard techniques to Long Evans Hooded rats weighing 225 to 350 grams, or CD-1 mice weighing 30 to 50 grams, which had been anesthetized using 2-3.5%% of isoflurane in oxygen. The animals were placed slightly head-down on an inclined, heated ramp. Rectal temperature was monitored using a thermocouple and the temperature of the heating pad was adjusted manually to maintain normal body temperature. Saliva was collected from the mouth by absorption onto pre-weighed slips of filter paper. The filter paper was changed periodically and the amount of saliva was measured by weighing the filter paper slips

[6] = test system: A-beta 1-40 and A-beta 1-42; assay: A-beta in hippocampal microdialysate of transgenic mice; format: in vivo, Tg-2576 transgenic mice; conditions: Tg-2576 mice, single dose (FIG. 14)
Text: These mice have high concentrations of A-beta in their brain tissue, thought to be the cause of neuron death in Alzheimer's disease, and accumulate amyloid plaques, recapitulating one of the hallmark pathological features of Alzheimer's disease.

[7] = test system: hippocampal inositol phosphate; assay: In vivo tissue inositol phosphate signaling pathway activation, hippocampus; set-up: species or system Long Evans Hooded rats; conditions: normal rats, dose-dependent 0.03 mg/kg to at least 3 mg/kg (FIG. 10A)
Method: Experimental compounds or drug substances were administered using standard techniques to Long Evans Hooded rats weighing 225 to 350 grams, and which had been pretreated with a subcutaneous injection of lithium chloride at a suitable dose between 3 and 10 mmoles per kg. At suitable times the animals were briefly anesthetized using 5% isoflurane and euthanized by decapitation. The brains and submaxillary salivary glands were rapidly dissected out, and the hippocampuses were dissected from the brains. The dissected tissues were homogenized in a suitable volume of ice-cold phosphate-buffered saline containing 10 mM lithium chloride, pH7.4, using a tissue homogenizer, and used immediately or frozen in aliquots at −80 deg C. for future use. The concentration of inositol-1-phosphate was determined in the homogenates using the IPOne TR-FRET assay (CisBio cat no 621PAPEB), following the manufacturer's instruction

in vitro [8] = conditions: PAMPA
CD-I mice = assay: Apomorphine induced climbing model of psychosis; format: in vivo
Method: As described in Costall et. al. European Journal of Pharmacology 1978, 50, 39. individual CD-I mice, 1-2 months old, were placed in a cylindrical wire mesh cage (13.2 cm high×13.2 cm diameter) constructed of steel wire 1 mm thick spaced at 1.2 cm^2. Cylinders were placed in a standard OptiMICE mouse cage (29×32×9×29 cm and 14 cm high) with adequate wood chip bedding provided. Observations of climbing (defined as 3 or more paws of the ground) were carried out every 5 minutes at a duration of 1 minute for […]. Animals were injected subcutaneously under isoflurane anesthesia with test compounds, reference compounds, which included clozapine, haloperidol, olanzapine and xanomeline, or PBS as a control. This was followed 5 minutes later by 2 mg/kg apomorphine hydrochloride. All drugs were dissolved in PBS or a mixture of (by volume) 96% PBS and 4% hydroxypropyl-beta-cyclodextrin, and dosed at a rate of 5 ml per kilogram of body weight. Following injections, animals were replaced in the mesh cages and observed for climbing (defined as 3 or more paws off the ground) every 5 minutes for 1 minute for 60 minutes after dosing.

rat M3 receptors = target: T4, rat M3 receptors (Rattus norvegicus, UniProt P08483); assay: PI turnover (inositol phosphate production) in M3-CHO cells; format: cell-based; conditions: mean Smax relative to carbachol (100.0); CHO cells expressing rat M3
T4 construct: host or cells: CHO (M3-CHO)
T4 sequence (P08483 whole entry): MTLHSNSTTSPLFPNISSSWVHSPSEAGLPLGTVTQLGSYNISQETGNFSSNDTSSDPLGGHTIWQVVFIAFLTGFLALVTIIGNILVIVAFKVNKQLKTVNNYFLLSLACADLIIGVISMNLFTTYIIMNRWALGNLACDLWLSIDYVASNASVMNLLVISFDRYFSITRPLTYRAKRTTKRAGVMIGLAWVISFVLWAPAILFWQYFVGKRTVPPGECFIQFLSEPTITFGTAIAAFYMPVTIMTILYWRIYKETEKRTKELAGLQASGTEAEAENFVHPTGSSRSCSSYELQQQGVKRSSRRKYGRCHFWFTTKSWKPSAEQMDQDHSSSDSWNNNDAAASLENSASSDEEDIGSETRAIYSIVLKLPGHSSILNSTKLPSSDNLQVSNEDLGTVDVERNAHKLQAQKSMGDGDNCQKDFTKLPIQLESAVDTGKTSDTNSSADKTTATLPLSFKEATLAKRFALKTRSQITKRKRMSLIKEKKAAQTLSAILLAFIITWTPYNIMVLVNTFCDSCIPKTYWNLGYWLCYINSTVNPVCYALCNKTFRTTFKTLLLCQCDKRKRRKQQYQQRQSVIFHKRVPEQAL
Method: The medium was changed to 70 μL/well of inositol-free DMEM containing 2 mM glutamine, 10% FBS and 10 μCi/ml of [3H]-inositol (PE:cat # NET114A250UC), incubated overnight as above, then 100 μL of a solution of the test compound in HBSS containing 10 mM LiCl and 20 mM HEPES, pH 7.4 was added, incubation was continued for 60 min under the above conditions, and the test was stopped by removing the test compound and replacing with 100 μL of 50 mM formic acid in water at 4° C. […] The compounds in Table 1 are all dihydropyrimidine-oxadiazoles which vary only at the oxadiazole side chain.

in vitro [9] = format: in vitro ADME; conditions: PAMPA, pH 7.4, PAMPA Permeability Coefficient (×10^6)
Method in brief: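 Compounds at 400 μM in 100 mM phosphate buffer pH 7.4 diffused through a filter pre-wetted with 20 mg/mL porcine brain polar lipid extract in dodecane into matching buffer, 24 h at room temperature. Donor, acceptor and stock samples were acidified with 1% TFA, quantified by LC/UV, and passive diffusion rates calculated from peak areas.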

[10] = mice, sc, apomorphine 2 mg/kg (FIG. 1)

In the case of `[2H]C([2H])([2H])c1noc(C2CCCNC2)n1` (stereo not drawn) [Compound 7, 3-D3-Methyl-5-(piperidin-3-yl)-1,2,4-oxadiazole], the “metabolism in human liver microsomes (in words)” value [1] is reported as “metabolized significantly less in human liver microsomes than in rat liver microsomes”, the “huM1/A9L Smax” value [2] is reported as 116% and the “huM1/A9L ED50 relative to CCh*” value [2] is reported as “+ (+ potency 2-10x CCh)”. The “huM3/A9L Smax” value [3] was 60%, the “huM3/A9L ED50 relative to CCh*” value [3] was “+/− (+/− potency 0.5-2x CCh)” and the “metabolites identified in plasma or urine” value [4] was “No metabolites were identified”. For the same compound, the “extent of metabolism in FMO Supersomes (in words)” value (human FMO1 Supersomes) was “less than half metabolized”, the “muscarinic agonist activity in vivo” value (rats; in vivo) was “demonstrated muscarinic agonist activity in vivo” and the “penetration into the brain after oral dosing” value [5] was “penetrated into the brain”. For the same compound, the “plasma concentrations relative to compound 1 after oral dosing” value ([5]; versus compound 1) was “approximately 2.4 times”.
With `Cc1noc(C2CCCNC2)n1` (racemic) [Compound 3, 3-Methyl-5-(piperidin-3-yl)-1,2,4-oxadiazole] the salivation (anesthetized normal rats) was “causes salivation”, the “reduction of the concentration of A-beta 1-40 in hippocampal microdialysate” value [6] was “approximately 40%” and the “reduction of the concentration of A-beta 1-42 in hippocampal microdialysate” value [6] was “approximately 40%”. The “hippocampal IP response” value [7] was “causes an increase in the hippocampal IP response”, the “metabolism in human liver microsomes (in words)” value [1] was “metabolized significantly less in human liver microsomes than in rat liver microsomes” and the Papp (in vitro [8]) was 2.56 ×10⁻⁶ cm/s. The “huM1/A9L Smax” value [2] was 108%, the “huM1/A9L ED50 relative to CCh*” value [2] was “+ (+ potency 2-10x CCh)” and the “huM3/A9L Smax” value [3] was 54%. For the same compound, the “huM3/A9L ED50 relative to CCh*” value [3] was “+/− (+/− potency 0.5-2x CCh)”, the “extent of metabolism in FMO Supersomes (in words)” value (human FMO1 Supersomes) was “less than half metabolized” and the “Climbing Mean” value (CD-I mice; Cmpd 3 0.1 mg/kg + APO 2 mg/kg) was 8.9 s. For the same compound, the “Climbing Mean” value (CD-I mice; Cmpd 3 0.1 mg/kg + APO + N-Methyl Scopolamine 0.3 mg/kg) was 12.3 s, the “Climbing Mean” value (CD-I mice; Cmpd 3 0.1 mg/kg + APO + scopolamine 0.3 mg/kg) was 47.0 s and the “activity in the apomorphine induced climbing model” value (CD-I mice; [10]) was “highly active and highly potent”. For the same compound, the “potency in inhibiting climbing compared with haloperidol” value (CD-I mice; [10]) was “equipotent to haloperidol”.
For “3-Methyl-5-(piperidin-3-yl)-1,2,4-oxadiazole [Compound 3]”, the “salivary flow after oral dosing” value (rats; rats, dosed orally) was “produced copious salivary flow”.
For `[2H]C([2H])([2H])c1noc(C2CN=CNC2)n1` (stereo not drawn) [Compound 4c, 3-(d3-methyl)-5-(1,4,5,6-tetrahydropyrimidin-5-yl)-1,2,4-oxadiazole hydrochloride], the “M3/CHO PI turnover Relative Mean Smax” value (rat M3 receptors) was 92.6.
For `Clc1cccc(Cl)c1N=C1NCCN1` [Clonidine, reference compound], the Papp (in vitro [9]) was 7.66 ×10⁻⁶ cm/s and the Papp (in vitro [8]) was 7.95 ×10⁻⁶ cm/s.
